From patent US20200038420A1, “AMINOSTEROL COMPOSITIONS AND METHODS OF USING THE SAME FOR TREATING DEPRESSION” (Enterin, Inc., priority 2018, published 2020)
Entries after “also recorded” stand apart in the source; their conditions may differ. Structures can show the parent of a compound that is named as a salt. Where two headings read alike, the source gives them in different places.

Assays:
[1] = cited from earlier work
[2] = system: patients with PD and constipation; experiment: Adverse events, Phase 2 trial Stage 2 (daily oral dosing); assay type: in vivo, human; details: Stage 2 (34 dosed), daily oral doses 75-250 mg
Procedure: (§1) In Stage 2, 34 patients were evaluated.

[3] = mice; into the duodenum through the biliary tract; cited from earlier work
[4] = system: IPANs (intrinsic primary afferent neuron); details: perfusion through the lumen of isolated bowel segment; increased frequency of propulsive peristaltic contractions; cited from earlier work
mouse models of PD = details: cited from earlier work
C. elegans αS model = details: cited from earlier work; for Formation of αS aggregates: in vivo, C. elegans model of PD
αS = αS (Homo sapiens, UniProt P37840); details: in vitro; cited from earlier work
[5] = system: patients with PD and constipation; experiment: CNS / neurological symptoms, Stage 2 (UPDRS, MMSE, PDHQ, BDI-II); assay type: in vivo, human
Description: Exploratory end-points, in addition to constipation, included for example, (i) depression assessed using the Beck Depression Inventory (BDI-II) (Steer et al. 2000) and Unified Parkinson's Disease Rating Scale (UPDRS); (ii) cognition assessed using the Mini Mental State Examination (MMSE) (Palsteia et al. 2018), Unified Parkinson's Disease Rating Scale (UPDRS), and Trail Making Test (TMT); (iii) sleep and REM-behavior disorder (RBD) using a daily sleep diary, I-Button Temperature Assessment, a REM sleep behavior disorder (RBD) questionnaire (RBDQ) (Stiasny-Kolster et al. 2007), and the UPDRS; (iv) hallucinations assessed using the PD hallucinations questionnaire (PDHQ) (Papapetropoulos et al. 2008), the UPDRS, and direct questioning; (v) fatigue using the Parkinson's Disease Fatigue Scale (PFS-16) and the UPDRS; (vi) motor functions using the UPDRS; and (vii) non-motor functions using the UPDRS.
(§2) Assessments were made at baseline and at the end of the fixed dose and washout periods. Circadian system status was evaluated by continuously monitoring wrist skin temperature (Thermochron iButton DS1921H; Maxim, Dallas) following published procedures (Sarabia et al. 2008).
An exploratory analysis was done with respect to the sleep data, the body temperature data, mood, fatigue, hallucinations, cognition and other motor and non-motor symptoms of PD. […]

[6] = system: patients with PD and constipation; experiment: Prokinetic response (CSBM within 24 hours of dosing), Stage 1; assay type: in vivo, human; details: Stage 1 (single dose)
Description: (§3) Tolerability limits included diarrhea or vomiting.

[7] = Oral bioavailability in PD patients (oral PK compared with prior IV PK); assay type: in vivo, human; details: this study
Procedure: PK data were collected on the 10 patients enrolled in Stage 1 and 10 patients enrolled in Stage 2 to determine the extent of systemic absorption. In Stage 1, PK data were obtained at each visit, pre-medication, at 1, 2, 4, 8 and 24 hours (Table 10). In Stage 2, PK was measured on days 1 and 6 of the randomization period pre-medication, at 1, 2, 4 and 8 hours (Table 11).

[8] = system: patients with PD and constipation; experiment: Adverse events, Phase 2 trial Stage 1 (single escalating oral doses); assay type: in vivo, human; details: Stage 1 (10 dosed), single escalating oral doses 25-200 mg
Description: as §3

[9] = system: patients with PD and constipation; experiment: Bowel function / stool related indices, Stage 2; assay type: in vivo, human; details: Stage 2 (daily dosing), at 75 mg
Procedure: Following successful screening, all subjects underwent a 14-day run-in period where the degree of constipation was assessed through a validated daily log (Zinsmeister et al. 2013) establishing baseline CSBMs/week. Subjects with an average of <3 CSBMs/week proceeded to dosing.
as §1
The primary efficacy outcome variable was whether or not a subject was a “success” or “failure”. This is an endpoint based on subject diary entries for the “fixed dose” period prior to the endpoint assessment defined as average complete stool frequency increase by 1 or more over baseline, or 3 or more complete spontaneous stools/week. The subject was deemed a “success” if s/he met one or more of the criteria listed above, otherwise the subject was deemed a “failure”. The primary analysis was based on all subjects with a baseline assessment and an assessment at the end of the “fixed-dose” period and was a comparison of the proportion of successes with 0.10 (the null hypothesis corresponding to no treatment effect).

[10] = system: patients with PD and constipation; experiment: Circadian rhythm of wrist skin temperature; assay type: in vivo, human; details: 12 patients
Procedure: (6) I-Button Temperature Assessment. The I-Button is a small, rugged self-sufficient system that measures temperature and records the results in a protected memory section. The Thermochron I-Button DS1921H (Maxim Integrated, Dallas, Tex.) was used for skin temperature measurement. I-Buttons were programmed to sample every 10 mins., and attached to a double-sided cotton sport wrist band using Velcro, with the sensor face of the I-Button placed over the inside of the wrist, on the radial artery of the dominant hand. Subjects removed and replaced the data logger when necessary (i.e., to have a bath or shower). […] From the collected data, the mesor, amplitude, acrophase (time of peak temperature), Rayleight test (an index of interdaily stability), mean waveforms are calculated.);
as §2
Circadian rhythm of skin temperature was evaluable in 12 patients (i.e., those who had recordings that extended from baseline through washout). Circadian system functionality was evaluated by continuously monitoring wrist skin temperature using a temperature sensor (Thermochron iButton DS1921H; Maxim, Dallas, Tex.) (Sarabia et al. 2008). […]

## CC(C)[C@@H](CC[C@@H](C)[C@H]1CC[C@H]2[C@@H]3[C@H](O)C[C@H]4C[C@@H](NCCCNCCCCN)CC[C@]4(C)[C@H]3CC[C@]12C)OS(=O)(=O)O (single isomer, unassigned) [squalamine (ENT-01), squalamine]
[1]; intravenous, prior studies
  Gastrointestinal motility after intravenous administration: not associated with increased gastrointestinal motility
[1]; prior studies
  Systemic blood levels, intravenous versus orally administered squalamine: one thousand-fold greater
[2]
  Diarrhea, Mild: 12(35)^ n, %
  Difficulty falling asleep, Mild: 1(3)^ n, %
  Difficulty falling asleep, Moderate: 0 n, %
  Eye infection, Mild: 1(3)^ n, %
  Eye infection, Moderate: 0 n, %
  Flatulence, Mild: 1(3)^ n, %
  Flatulence, Moderate: 0 n, %
  Headache, Moderate: 0 n, %
  Increased urinary frequency, Moderate: 0 n, %
  Nausea, Mild: 18(52)^ n, %
  Skin lesions-rash, Moderate: 0 n, %
  Urinary retention, Mild: 1(3)^ n, %
  Urinary retention, Moderate: 0 n, %
  Urinary tract infection, Mild: 1(3)^ n, %
  Vomiting, Moderate: 0 n, %
  Worsening acid reflux, Moderate: 0 n, %
  Worsening hemorrhoid, Mild: 1(3)^ n, %
  Worsening hemorrhoid, Moderate: 0 n, %
[2]; unrelated to ENT-01
  Blood in urine, Mild: 0 n, %
  Blood in urine, Moderate: 0 n, %
  Loss of appetite, Mild: 0 n, %
  Loss of appetite, Moderate: 0 n, %
[3]
  Clearance and excretion following systemic administration: cleared by the liver and excreted as the intact molecule
[4]
  Effect on enteric sensory neurons: excitation of IPANs
Mouse models of PD; oral, mice with constipation due to overexpression of human αS
  Gastro-intestinal motility: stimulates gastro-intestinal motility
Mouse models of PD; several mouse models of PD
  Gastrointestinal motility / dysmotility: restores gastrointestinal motility; also recorded: reverse gastrointestinal dysmotility
C. elegans αS model; C. elegans αS model
  Muscle paralysis / motor dysfunction: reverses motor dysfunction; also recorded: complete reversal of muscle paralysis
C. elegans αS model; listed as ENT-01
  Formation of αS aggregates: inhibit the formation of aggregates of αS
C. elegans αS model; listed as squalamine
  Formation of αS aggregates: inhibits the formation of αS aggregates
αS
  Formation of αS aggregates: inhibits the formation of αS aggregates
[5]; Stage 2, 5 patients with hallucinations and 1 with delusions at baseline
  Patients in whom hallucinations and delusions improved or disappeared during treatment: 5 of 6
[5]; baseline 11.6 to wash-out 9.5
  Improvement of UPDRS Part 1 score: ~20%
[6]; at 25 mg
  Cumulative prokinetic response rate: 25%
[6]; maximum, at 200 mg
  Cumulative prokinetic response rate: 80%
[7]
  Systemic absorption following oral administration: not significantly absorbed into the systemic circulation
[7]; listed as aminosterol
  Systemic absorption following oral administration: negligible
[8]
  Abdominal pain, Mild: 2(20) n, %
  Abdominal pain, Moderate: 3(30) n, %
  Diarrhea, Mild: 1(10) n, %
  Diarrhea, Moderate: 3(30) n, %
  Diarrhea, Severe: 0 n, %
  Difficulty falling asleep, Mild: 0 n, %
  Difficulty falling asleep, Moderate: 0 n, %
  Dizziness, Mild: 0 n, %
  Dizziness, Moderate: 0 n, %
  Eye infection, Mild: 0 n, %
  Eye infection, Moderate: 0 n, %
  Flatulence, Mild: 2(20) n, %
  Flatulence, Moderate: 0 n, %
  Headache, Mild: 1(10) n, %
  Headache, Moderate: 0 n, %
  Increased urinary frequency, Mild: 0 n, %
  Increased urinary frequency, Moderate: 0 n, %
  Nausea, Mild: 4(40) n, %
  Nausea, Moderate: 0 n, %
  Skin lesions-rash, Mild: 0 n, %
  Skin lesions-rash, Moderate: 0 n, %
  Urinary retention, Mild: 0 n, %
  Urinary retention, Moderate: 0 n, %
  Urinary tract infection, Mild: 0 n, %
  Urinary tract infection, Moderate: 0 n, %
  Vomiting, Mild: 1(10) n, %
  Vomiting, Moderate: 0 n, %
  Worsening acid reflux, Mild: 0 n, %
  Worsening acid reflux, Moderate: 0 n, %
  Worsening hemorrhoid, Mild: 0 n, %
  Worsening hemorrhoid, Moderate: 0 n, %
[8]; unrelated to ENT-01
  Blood in urine, Mild: 1(10) n, %
  Blood in urine, Moderate: 0 n, %
  Loss of appetite, Mild: 1(10) n, %
  Loss of appetite, Moderate: 0 n, %
  Lower GI bleed, Severe: 0 n, %
[9]
  Prokinetic response rate: 26%
[10]; fixed dose versus baseline
  Circadian rhythm parameters (IS, RA, CFI, IV): improved all markers of healthy circadian function
[10]; wash-out period
  Circadian rhythm parameters (IS, CFI): improvement persisted for several of these circadian parameters

## CC(C)[C@@H](CC[C@@H](C)[C@H]1CC[C@H]2[C@@H]3[C@H](O)C[C@H]4C[C@@H](NCCCNCCCCN)CC[C@]4(C)[C@H]3CC[C@]12C)OS(=O)(=O)O [Squalamine dilactate salt]
[1]; intravenous, alone or in combination with other agents, Phase 1 and Phase 2 trials
  Well tolerated dose, single and repeat intravenous administration: at least 300 mg/m^2
